“Also recorded” adds a separate entry of the source.

The record followed here is publication PMC7127338 (Bioorganic & Medicinal Chemistry Letters, 2013).

Data set [1] in a line: Stability study at −20 °C. Type of data set: physicochemical.
Data set [2] is described as follows: Stability study at different pH values. It is filed as physicochemical. The conditions noted are these: 2 days.

For `C[C@H](NP(=O)(Oc1ccccc1)O[C@H]1O[C@H](CO)[C@@H](O)[C@@H]1F)C(=O)OC1CCCCC1` (stereo partly drawn) [compound 14b, 2-deoxy-2-fluoro-D-arabinofuranose 1-O-phenyl-(cyclohexoxy-alaninyl)-phosphate], in data set [1] (1 h after purification by column chromatography), the “Purity after 1 h” value is 68%. Moreover, the “Purity after 13 h” value in data set [1] (13 h (one night) at −20 °C) is 30%. Further, the “Purity after 20 h” value in data set [1] (20 h, −20 °C) is reported as 8%.

Take `C[C@H](NP(=O)(Oc1ccccc1)O[C@H]1O[C@H](CO)[C@@H](O)C1(F)F)C(=O)OC1CCCCC1` (stereo partly drawn) [compound 25c, 2-deoxy-2,2-difluoro-D-ribofuranose 1-O-phenyl-(cyclohexoxy-alaninyl)-phosphate]: the “Stability study at pH 5 (degradation)” value in data set [2] (pH 5 (acidic)) is reported as “no degradation at all after 2 days; also recorded: No degradation observed over 2 days”. In data set [2] (pH 7 (neutral)), the “Stability study at pH 7 (degradation)” value is on record as “no degradation at all after 2 days; also recorded: No degradation observed over 2 days”. Further, the “Stability study at −20 °C (degradation)” value in data set [1] (storage at −20 °C) is “no degradation at all after 4 months; also recorded: No degradation observed after 4 months”.
